Measured values from PubChem BioAssay (NCI).
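Protocol summary: plate cells (96-well), add compound at 5 concentrations, incubate 48 h, interpolate endpoints linearly. Definition used: TGI = concentration required for complete inhibition of growth.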

Tests used:
Assay in all cases: NCI-60 cell line screen, 48 h
[1] = system: HCT-15 colon
[2] = system: K-562 leukemia
[3] = system: KM12 colon
[4] = system: MOLT-4 leukemia
[5] = system: SK-MEL-28 melanoma
[6] = system: UACC-257 melanoma
[7] = system: A498 renal
[8] = system: EKVX NSCLC
[9] = system: OVCAR-5 ovarian
[10] = system: HS 578T breast

Row | Structure (SMILES) | TGI [1] [µM] | TGI [2] [µM] | TGI [3] [µM] | TGI [4] [µM] | TGI [5] [µM] | TGI [6] [µM] | TGI [7] [µM] | TGI [8] [µM] | TGI [9] [µM] | TGI [10] [µM]
1 | On1c(-c2ccccc2)c(-c2c(-c3ccccc3)n(O)c3ccccc23)c2ccccc21 | > 100 | > 100 | > 100 | > 100 | > 100 | 88.9 |  |  |  | 
2 | COC(=O)/C(=C/c1ccc(OC)cc1)C(C(=O)O)=C(C)C | > 100 | > 100 | > 100 | > 100 | > 100 | > 100 | > 100 | > 100 | > 100 | 
3 | CN(C)[C@@H]1C(=O)C(C(N)=O)=C(O)[C@@]2(O)C(=O)C3=C(O)c4c(O)cccc4C[C@H]3C[C@@H]12 | 22 | 6.65 | 6.54 | 5.55 | 3.19 |  | 4.56 |  |  | 
4 | O=C(C=P(c1ccccc1)(c1ccccc1)c1ccccc1)C12CC3CC(CC(C3)C1)C2 | 26.7 | 25.2 | 32 |  | 31.8 | 32.8 | 39.9 | 29.3 | 32.7 | 37.6
5 | CSc1nc2c(c(N(C)C)n1)C=Nn1c(nc3ccccc31)S2 | > 100 | > 100 | > 100 | > 100 | > 100 | > 100 | > 100 |  | > 100 | > 100
6 | Cc1c(C)c(C)c(-n2c(=O)n(C)c(=O)n2C(C)(C)C)c(C)c1C | > 100 | > 100 | > 100 | > 100 | > 100 | > 100 | > 100 |  | > 100 | > 100
7 | O=c1[nH]cnc2c1nnn2CCCn1nnc2c(=O)[nH]cnc21 | > 100 | > 100 | > 100 | > 100 | > 100 | > 100 | > 100 | > 100 | > 100 | 
8 | C=C(NC(=O)C(=C)NC(=O)c1csc(C2=NC3c4csc(n4)C4NC(=O)c5csc(n5)C(C(C)(O)C(C)O)NC(=O)C5CSC(=N5)/C(=C/C)NC(=O)C(C(C)O)NC(=O)c5csc(n5)C3(CC2)NC(=O)C(C)NC(=O)C(=C)NC(=O)C(=C)NC(=O)C(C(C)C)NC2C=Cc3c(C(C)O)cc(nc3C2O)C(=O)OC4C)n1)C(N)=O (stereo not drawn) | > 63.4 | > 48.3 | > 100 |  | > 62.1 | 18.7 | 16.5 | > 100 | 28.2 | > 100
9 | COc1ccc(-n2sc3ncc(-c4ccccc4)cc3c2=O)cc1 | > 100 |  | > 100 |  | > 100 | > 100 | > 100 | > 100 | 74 | 
10 | COc1c2cc(C(C)(C)C)cc1CSCc1cc(C(C)(C)C)cc(c1OC)CCCCC2 | > 50 | > 50 | > 50 | > 50 | > 50 | 49.1 | > 50 |  | > 50 | > 50
11 | CCOC(=O)C1NCCc2c1[nH]c1ccccc21 (stereo not drawn) | > 10 | > 10 | > 10 | > 10 | > 10 | > 10 |  | > 10 |  | 
12 | CN1CC(c2ccccc2)=Cc2c1ccc(N)c2N=N | > 100 | > 100 | > 100 | > 100 | > 100 | > 100 |  | > 100 | > 100 | > 100
